Values joined by “and” are separate entries in the source; they are usually repeats but may differ in a detail not shown here. Equal values may be shown once. Toxic doses and inconclusive results are not listed.

The test system of this assay is CD2F1 mice, L1210 leukemia ip, survival T/C. Kind of assay: NCI In Vivo Anticancer Drug Screen. Data for tumor model L1210 Leukemia (intraperitoneal) in CD2F1 (CDF1) mice. Conditions: higher = longer survival. The essentials:
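Vehicle-treated tumor-bearing mice served as controls (C) for compound-treated mice (T). Reported figure is T divided by C.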

Where [1] appears, read: endpoint: mean survival time, dose: 100.0 mg/kg/injection, schedule: Q04DX003 (ip), vehicle: saline with Tween-80.
Setting [2] is: endpoint: mean survival time, dose: 200.0 mg/kg/injection, schedule: Q04DX003 (ip), vehicle: saline with Tween-80.
Where [3] appears, read: endpoint: mean survival time, dose: 400.0 mg/kg/injection, schedule: Q04DX003 (ip), vehicle: saline with Tween-80.
[4] abbreviates: endpoint: mean survival time, dose: 12.5 mg/kg/injection, schedule: Q01DX009 (ip), vehicle: saline with Tween-80.
Where [5] appears, read: endpoint: mean survival time, dose: 12.5 mg/kg/injection, schedule: Q04DX003 (ip), vehicle: saline with Tween-80.
Setting [6] is: endpoint: mean survival time, dose: 25.0 mg/kg/injection, schedule: Q01DX009 (ip), vehicle: saline with Tween-80.
[7] abbreviates: endpoint: mean survival time, dose: 25.0 mg/kg/injection, schedule: Q04DX003 (ip), vehicle: saline with Tween-80.
Where [8] appears, read: endpoint: mean survival time, dose: 50.0 mg/kg/injection, schedule: Q01DX009 (ip), vehicle: saline with Tween-80.
[9] abbreviates: endpoint: mean survival time, dose: 6.25 mg/kg/injection, schedule: Q01DX009 (ip), vehicle: saline with Tween-80.
[10] abbreviates: endpoint: mean survival time, dose: 100.0 mg/kg/injection, schedule: Q01DX009 (ip), vehicle: saline with Tween-80.
[11] abbreviates: endpoint: mean survival time, dose: 200.0 mg/kg/injection, schedule: Q01DX009 (ip), vehicle: saline with Tween-80.
Where [12] appears, read: endpoint: mean survival time, dose: 400.0 mg/kg/injection, schedule: Q01DX009 (ip), vehicle: saline with Tween-80.

As for `CCCCCCCCCCCCc1ccc(NC(C)=O)cc1`, the T/C by setting is: (endpoint: mean survival time, dose: 100.0 mg/kg/injection, schedule: Q04DX003 (ip), vehicle: other) 97 % of control; (endpoint: mean survival time, dose: 200.0 mg/kg/injection, schedule: Q04DX003 (ip), vehicle: other) 95 % of control; (endpoint: mean survival time, dose: 400.0 mg/kg/injection, schedule: Q04DX003 (ip), vehicle: other) 100 % of control.

Take `Nc1ccc2sccc2c1`: the T/C is 103 % of control under setting [1], 102 % of control under setting [2] and 101 % of control under setting [3].

For `CCCCCCCCCCCCCCCCOc1ccccc1NC(=O)CC(C)=O`, the T/C is 96 % of control under setting [1], 94 % of control under setting [2] and 95 % of control under setting [3].

Turning to `COc1ccccc1OCC(C)=O`, the T/C is 108 % of control under setting [1], 98 % of control under setting [2] and 97 % of control under setting [3].

As for `Cc1nc(N)[nH]c(=O)c1NC(=O)c1ccc(N=[N+]=[N-])cc1`, the T/C (endpoint: mean survival time, dose: 12.5 mg/kg/injection, schedule: Q01DX001 (ip), vehicle: saline with Tween-80) is 90 % of control; the T/C under setting [4] is 89 % of control; the T/C under setting [5] was 97 % of control; the T/C (endpoint: mean survival time, dose: 25.0 mg/kg/injection, schedule: Q01DX001 (ip), vehicle: saline with Tween-80) is 95 % of control; the T/C under setting [6] is 94 % of control; the T/C under setting [7] was 97 % of control. The T/C was 94 % of control (endpoint: mean survival time, dose: 50.0 mg/kg/injection, schedule: Q01DX001 (ip), vehicle: saline with Tween-80); 91 % of control under setting [8]; 96 % of control (endpoint: mean survival time, dose: 50.0 mg/kg/injection, schedule: Q04DX003 (ip), vehicle: saline with Tween-80).

Take `CCOC(=O)/C(C#N)=C\c1cccs1`: the T/C (endpoint: mean survival time, dose: 25.0 mg/kg/injection, schedule: Q04DX003 (ip), vehicle: Klucel (hydroxypropylcellulose) (HPC)) was 96 % of control; the T/C (endpoint: mean survival time, dose: 50.0 mg/kg/injection, schedule: Q04DX003 (ip), vehicle: Klucel (hydroxypropylcellulose) (HPC)) was 96 % of control; the T/C (endpoint: mean survival time, dose: 100.0 mg/kg/injection, schedule: Q04DX003 (ip), vehicle: Klucel (hydroxypropylcellulose) (HPC)) is 107 % of control.

For `O=C(O)/C(O)=C(/O)C(=O)O.[NH-]C1CCCCC1[NH-].[Pt+2]`, the T/C was 97 % of control (endpoint: median survival time, dose: 3.12 mg/kg/injection, schedule: Q04DX003 (ip), vehicle: saline); 113 % of control and 202 % of control (endpoint: median survival time, dose: 25.0 mg/kg/injection, schedule: Q04DX003 (ip), vehicle: saline); 337 % of control (endpoint: median survival time, dose: 50.0 mg/kg/injection, schedule: Q04DX003 (ip), vehicle: saline); 184 % of control (endpoint: median survival time, dose: 200.0 mg/kg/injection, schedule: Q04DX003 (ip), vehicle: saline).

`C=CC(=O)O`: the T/C was 107 % of control (endpoint: mean survival time, dose: 1.56 mg/kg/injection, schedule: Q04DX003 (ip), vehicle: saline with Tween-80); 109 % of control (endpoint: mean survival time, dose: 3.12 mg/kg/injection, schedule: Q04DX003 (ip), vehicle: saline with Tween-80); 97 % of control under setting [9]; 90 % of control (endpoint: mean survival time, dose: 6.25 mg/kg/injection, schedule: Q04DX003 (ip), vehicle: Klucel (hydroxypropylcellulose) (HPC)); 101 % of control (endpoint: mean survival time, dose: 6.25 mg/kg/injection, schedule: Q04DX003 (ip), vehicle: saline with Tween-80); 89 % of control (endpoint: mean survival time, dose: 9.2 mg/kg/injection, schedule: Q01DX009 (ip), vehicle: acetone). The T/C by setting is: under setting [4], 92 % of control; (endpoint: mean survival time, dose: 12.5 mg/kg/injection, schedule: Q04DX003 (ip), vehicle: Klucel (hydroxypropylcellulose) (HPC)) 96 % of control; under setting [5], 91 % of control; under setting [7], 97 % of control.

As to `CC(C)=CCC(O)C1=CC(=O)c2c(O)ccc(O)c2C1=O` (centres undefined), the T/C was 98 % of control (endpoint: mean survival time, dose: 7.5 mg/kg/injection, schedule: Q04DX003 (ip), vehicle: saline sonified); 102 % of control (endpoint: mean survival time, dose: 15.0 mg/kg/injection, schedule: Q04DX003 (ip), vehicle: saline sonified); 101 % of control (endpoint: mean survival time, dose: 30.0 mg/kg/injection, schedule: Q04DX003 (ip), vehicle: saline sonified).

Turning to `CCN(CC)CCCNc1c2ccc(Cl)cc2nc2ccc(OC)nc12`, the T/C is 109 % of control under setting [8], 97 % of control under setting [10] and 114 % of control under setting [11].

Regarding `N=C(N)Sc1ccccn1`, the T/C reads like this: (endpoint: mean survival time, dose: 12.5 mg/kg/injection, schedule: Q01DX009 (ip), vehicle: suspension in saline) 98 % of control; (endpoint: mean survival time, dose: 25.0 mg/kg/injection, schedule: Q01DX009 (ip), vehicle: suspension in saline) 108 % of control; (endpoint: mean survival time, dose: 50.0 mg/kg/injection, schedule: Q01DX009 (ip), vehicle: suspension in saline) 93 % of control; (endpoint: mean survival time, dose: 100.0 mg/kg/injection, schedule: Q01DX009 (ip), vehicle: suspension in saline) 93 % of control; (endpoint: mean survival time, dose: 200.0 mg/kg/injection, schedule: Q01DX009 (ip), vehicle: suspension in saline) 87 % of control; (endpoint: mean survival time, dose: 400.0 mg/kg/injection, schedule: Q01DX009 (ip), vehicle: suspension in saline) 90 % of control.

For `COc1cc(/C=N\Nc2ccccc2[N+](=O)[O-])cc(OC)c1OC`, the T/C is, setting by setting: under setting [10], 93 % of control; under setting [11], 103 % of control; under setting [12], 98 % of control.

For the compound `OC(Cc1nc2ccccc2s1)(C(F)(F)F)C(F)(F)F`, the T/C under setting [10] was 96 % of control; the T/C under setting [1] is 95 % of control; the T/C under setting [11] was 93 % of control; the T/C under setting [2] was 104 % of control; the T/C under setting [12] was 96 % of control; the T/C under setting [3] is 97 % of control.

Take `O=C[C@@H](CO)O[C@H](C=O)n1cnc2c(=O)[nH]cnc21`: the T/C runs as follows: (endpoint: mean survival time, dose: 20.0 mg/kg/injection, schedule: Q01DX009 (ip), vehicle: saline) 111 % of control; (endpoint: mean survival time, dose: 40.0 mg/kg/injection, schedule: Q01DX009 (ip), vehicle: saline) 115 % of control; (endpoint: mean survival time, dose: 50.0 mg/kg/injection, schedule: Q04DX003 (ip), vehicle: saline) 114 % of control; (endpoint: mean survival time, dose: 70.0 mg/kg/injection, schedule: Q01DX001 (ip), vehicle: saline) 110 % of control; (endpoint: mean survival time, dose: 80.0 mg/kg/injection, schedule: Q01DX009 (ip), vehicle: saline) 160 % of control; (endpoint: mean survival time, dose: 100.0 mg/kg/injection, schedule: Q01DX007 (ip), vehicle: saline) 156 % of control. In addition, the T/C by setting is: (endpoint: mean survival time, dose: 140.0 mg/kg/injection, schedule: Q01DX001 (ip), vehicle: saline) 124 % of control; (endpoint: mean survival time, dose: 160.0 mg/kg/injection, schedule: Q01DX009 (ip), vehicle: saline) 177 % of control and 182 % of control; (endpoint: mean survival time, dose: 200.0 mg/kg/injection, schedule: Q01DX007 (ip), vehicle: saline) 150 % of control; (endpoint: mean survival time, dose: 200.0 mg/kg/injection, schedule: Q01DX009 (ip), vehicle: saline) 287 % of control; (endpoint: mean survival time, dose: 200.0 mg/kg/injection, schedule: Q03DX003 (ip), vehicle: saline) 162 % of control; (endpoint: mean survival time, dose: 200.0 mg/kg/injection, schedule: Q04DX003 (ip), vehicle: saline) 158 % of control. Further, the T/C was 122 % of control (endpoint: median survival time, dose: 38.9 mg/kg/injection, schedule: Q01DX005 (ip), vehicle: saline); 122 % of control (endpoint: median survival time, dose: 39.0 mg/kg/injection, schedule: Q01DX009 (ip), vehicle: clinical formulation); 118 % of control (endpoint: median survival time, dose: 50.0 mg/kg/injection, schedule: Q01DX005 (ip), vehicle: distilled water + Tween-80); 173 % of control (endpoint: median survival time, dose: 89.0 mg/kg/injection, schedule: Q01DX009 (ip), vehicle: clinical formulation); 171 % of control (endpoint: median survival time, dose: 89.0 mg/kg/injection, schedule: Q01DX009 (ip), vehicle: sodium bicarbonate); 105 % of control (endpoint: median survival time, dose: 133.0 mg/kg/injection, schedule: Q01DX009 (ip), vehicle: clinical formulation). For the same compound, the T/C (endpoint: median survival time, dose: 133.0 mg/kg/injection, schedule: Q01DX009 (ip), vehicle: sodium bicarbonate) is 163 % of control; the T/C (endpoint: median survival time, dose: 180.0 mg/kg/injection, schedule: Q01DX005 (ip), vehicle: saline) is 170 % of control; the T/C (endpoint: median survival time, dose: 200.0 mg/kg/injection, schedule: Q01DX005 (ip), vehicle: distilled water + Tween-80) was 196 % of control; the T/C (endpoint: median survival time, dose: 300.0 mg/kg/injection, schedule: Q01DX005 (ip), vehicle: saline) was 238 % of control.

On to `COC1CCC2=C(C1)C(=O)CC1c3ccccc3CCN21` (centres undefined) (tested in a mixture with another compound), for which the T/C by setting is: under setting [9], 96 % of control; under setting [4], 98 % of control; under setting [6], 96 % of control.
